Where two headings read alike, the source gives them in different places.
Legend:
collagen IV [1] = test system: collagen IV
Angiotensin I = assay: Mass spectrometry of formalin treated Angiotensin I after heating with aldehyde scavenging compounds; settings: 5% compound, 95° C., 45 minutes
Procedure: Angiotensin I is treated with formalin at room temperature for 48 hours. […] Mass-spectrometry is used to analyze the compositions of the Angiotensin I before and after treatment by each compound. Samples of Angiotensin I before (FIG. 11A) and after (FIG. 11B) formalin treatments are used as the controls for the experiment. Peaks at m/z 1296 represent unmodified Angiotensin I. Peaks at m/z 1308 represent Angiotensin I with 1 methylene unit. Peaks at m/z 1320 represent Angiotensin I with 2 methylene units. Peaks at m/z 1338 represent Angiotensin I with 1 methylene unit and 1 hydroxymethylene group. Peaks at m/z 1350 represent Angiotensin I with 2 methylene units and 1 hydroxymethylene group.

Collagen IV [2] = assay: Immunohistochemical staining of Collagen IV on formalin fixed paraffin embedded mouse brain sections after antigen retrieval with formaldehyde scavengers and enhancer; set-up: key: − being non-reactive; Immunoreactivity was scored on a scale of − to +++; Immunoreactivity was scored on a scale of − to +++; +++ being highly reactive; settings: 45 minutes at 95° C.
Procedure: 12-month-old C57Bl6J mice were housed under controlled environment conditions on a condition al 12 hour light dark cycle. Following sacrifice, brains were post-fixed in 4% paraformaldehyde for 72 hours at […] and then transferred to 70% ethanol solution where they were stored at 4° C. Tissue was paraffin-processed using convention dehydration and embedding, and then sectioned at 5 μm intervals.
Tissues were deparaffinized and rehydrated. Slides were placed in a plastic Coplin jar containing either distilled water or a combination of formaldehyde scavengers in combination with an enhancer. Jars were covered with a loose fitting screw cap and heated in a pressure cooker for 45 minutes at 95° C. After heating, the Coplin jars were removed and allowed to cool and rinsed in TBST for five minutes.
Immunohistochemical staining was performed using a three-step immunostaining technique using the ABC method. Briefly, all incubations were performed as follows: 1) primary antibodies were incubated overnight at 4° C., 2) secondary antibodies were incubated for 10 minutes at room temperature, 3) streptavidin-conjugated enzyme was incubated for 10 minutes at room temperature, 4) peroxidase substrate was incubated for 1 minute.

RNA = assay: Recovery of RNA from formalin-fixed paraffin-embedded tissue samples (FIG. 30)
GFAP = assay: Microscope images of GFAP immunostaining after antigen retrieval (FIGS. 15-18)
Collagen IV [3] = assay: Immunohistochemical staining of Collagen IV after antigen retrieval with 0.05% maleic acid and cooling in a second solution; set-up: species or system mouse; key to Result (immunoreactivity, Collagen IV staining): − being non-reactive; Immunoreactivity was scored on a scale of − to +++; Immunoreactivity was scored on a scale of − to +++; +++ being highly reactive; settings: for immunostaining of Collagen IV after antigen retrieval with maleic acid and cooling to room temperature: FIGS. 31A-31C, compared to dH2O; for Result (immunoreactivity, Collagen IV staining): Table 9, retrieval with 0.05% maleic acid 45 minutes at 95° C., then cooling to room temperature in the named solution (10% guanidine or 2,2,2-trifluoroethanol in water)
Procedure: 12-month-old […] mice were housed under controlled environment conditions on a condition al 12 hour light dark cycle. Following sacrifice, brains were post-fixed in 4% paraformaldehyde for 72 hours at 4° C. and then transferred to 70% ethanol solution where they were stored at 4° C. Tissue was paraffin-processed using convention dehydration and embedding, and then sectioned at 5 μm intervals. Tissues were deparaffinized and rehydrated. […] Jars were covered with a loose fitting screw cap and heated in a pressure cooker for 45 minutes at 95° C. After heating, the Coplin jars were removed and slides were allowed to cool to room temperature in either 10% guanidine or 2,2,2-trifluoroethanol in water and rinsed in TBST for five minutes. Immunohistochemical staining was performed using a three-step immunostaining technique using the ABC method. Briefly, all incubations were performed as follows: 1) primary antibodies were incubated overnight at 4° C., 2) secondary antibodies were incubated for 10 minutes at room temperature, 3) streptavidin-conjugated enzyme was incubated for 10 minutes at room temperature, 4) peroxidase substrate was incubated for 1 minute.

blood vessels = assay: Antigen retrieval in paraformaldehyde fixed vascular tissue, visualization of blood vessels; settings: paraformaldehyde fixed tissue heated in solution of compound (FIGS. 4A-4E)
Excerpt: Paraformaldehyde fixed tissue samples are heated in solutions of compounds prepared as described in Example 1 and the blood vessels in the tissue are visualized.

collagen IV [4] = assay: Antigen retrieval and immunodetection of collagen IV in paraformaldehyde fixed tissues (general method); settings: 0.05% maleic anhydride pretreatment; compared with TBST, low pH sodium citrate, pepsin (FIGS. 2A-2D)
Procedure: The solution is heated to about 70° C. to about 95° C. for about 30 minutes. The ensuing chemical reaction enables the unmasking or retrieval of the chemical epitopes. The formaldehyde-fixed tissue is placed into the heated solution for about 30 minutes and then washed. The tissues can then be stained to detect the protein of interest.

[5] = microscope images, figure legends
[6] = compared to control buffer (FIG. 30)
[7] = Table 2, aniline compounds, FFPE mouse brain sections

NO [1% Hydroxylamine, Hydroxylamine]
immunostaining of Collagen IV after antigen retrieval (collagen IV [1]; [5]): enhanced immunostaining
retrieval of formalin adducts of Angiotensin I (Angiotensin I): significant retrieval of formalin adducts
Result (immunoreactivity, Collagen IV staining) (Collagen IV [2]; Table 3, 1% hydroxylamine alone or with 4-aminophenol, concentrations in label): +
Result (immunoreactivity, Collagen IV staining) (Collagen IV [2]; Table 4, 1% hydroxylamine alone or with aniline, concentrations in label): +
Result (immunoreactivity, Collagen IV staining) (Collagen IV [2]; Table 5, 0.5% hydroxylamine alone or with aniline, concentrations in label): +
recovery of RNA from formalin-fixed paraffin-embedded tissue samples (RNA; [6]): enhanced recovery of RNA

NOCc1ccccc1 [1% O-Benzylhydroxylamine, O-Benzylhydroxylamine]
immunostaining of Collagen IV after antigen retrieval (collagen IV [1]; [5]): enhanced immunostaining
Result (immunoreactivity, Collagen IV staining) (Collagen IV [2]; Table 6, 1% O-benzylhydroxylamine alone or with aniline, concentrations in label): +
Result (immunoreactivity, Collagen IV staining) (Collagen IV [2]; Table 7, 0.5% O-benzylhydroxylamine alone or with aniline, concentrations in label): +
recovery of RNA from formalin-fixed paraffin-embedded tissue samples (RNA; [6]): enhanced recovery of RNA

Sc1nc(S)nc(S)n1 [1,3,5-triazine-2,4,6-trithiol]
immunostaining of GFAP after antigen retrieval (GFAP; [5]): enhanced immunostaining

CCCC(N)O (centres unmarked) [1-amino-1-butanol]
immunostaining of Collagen IV after antigen retrieval (collagen IV [1]; [5]): enhanced immunostaining

OCC(F)(F)F [2,2,2-Trifluoroethanol]
immunostaining of Collagen IV after antigen retrieval with maleic acid and cooling to room temperature (Collagen IV [3]): enhanced immunostaining
Result (immunoreactivity, Collagen IV staining) (Collagen IV [3]): ++

CC1=C(C)C(=O)OC1=O [2,3-dimethylmaleic anhydride]
antigen retrieval with visualization of the blood vessels (blood vessels): successful antigen retrieval

COc1ccc(N)c(C(=O)O)c1 [2-Amino-5-methoxybenzoic acid]
Result (immunoreactivity, Collagen IV staining) (Collagen IV [2]; [7]): −
recovery of RNA from formalin-fixed paraffin-embedded tissue samples (RNA; [6]): enhanced recovery of RNA

CC(N)(CO)CO [2-amino-2-methyl-1,3-propanediol]
immunostaining of Collagen IV after antigen retrieval (collagen IV [1]; [5]): enhanced immunostaining

O=C1CCCN1 [2-pyrrolidinone]
immunostaining of Collagen IV after antigen retrieval (collagen IV [1]; [5]): enhanced immunostaining

Nc1ccc(O)cc1 [4-Aminophenol]
immunostaining of Collagen IV after antigen retrieval (collagen IV [1]; [5]): enhanced immunostaining
Result (immunoreactivity, Collagen IV staining) (Collagen IV [2]; [7]): ++
recovery of RNA from formalin-fixed paraffin-embedded tissue samples (RNA; [6]): enhanced recovery of RNA

CCOc1ccc(N)cc1 [4-Ethoxyaniline]
immunostaining of Collagen IV after antigen retrieval (collagen IV [1]): enhanced immunostaining
Result (immunoreactivity, Collagen IV staining) (Collagen IV [2]; [7]): +

Nc1ccccc1 [Aniline]
immunostaining of Collagen IV after antigen retrieval (collagen IV [1]; [5]): enhanced immunostaining
Result (immunoreactivity, Collagen IV staining) (Collagen IV [2]; [7]): ++
recovery of RNA from formalin-fixed paraffin-embedded tissue samples (RNA; [6]): enhanced recovery of RNA

N=C(N)N [Guanidine]
immunostaining of Collagen IV after antigen retrieval (collagen IV [1]; [5]): enhanced immunostaining
amount of Angiotensin I with 2 methylene units (m/z 1320) (Angiotensin I): does not exhibit any impact
content of Angiotensin I with 1 methylene unit and 1 hydroxymethylene group (m/z 1338) (Angiotensin I): minimal ability to retrieve
immunostaining of Collagen IV after antigen retrieval with maleic acid and cooling to room temperature (Collagen IV [3]): enhanced immunostaining
Result (immunoreactivity, Collagen IV staining) (Collagen IV [3]): ++

NC(=O)C[C@H](N)C(=O)O [L-asparagine]
immunostaining of Collagen IV after antigen retrieval (collagen IV [1]; [5]): enhanced immunostaining

NOCC(=O)O [O-(carboxymethyl)hydroxylamine]
immunostaining of Collagen IV after antigen retrieval (collagen IV [1]; [5]): enhanced immunostaining
recovery of RNA from formalin-fixed paraffin-embedded tissue samples (RNA; [6]): enhanced recovery of RNA

CCON [O-ethylhydroxylamine]
immunostaining of Collagen IV after antigen retrieval (collagen IV [1]; [5]): enhanced immunostaining
recovery of RNA from formalin-fixed paraffin-embedded tissue samples (RNA; [6]): enhanced recovery of RNA

Nc1ccc(S(=O)(=O)O)cc1 [Sulfanilic acid]
immunostaining of Collagen IV after antigen retrieval (collagen IV [1]; [5]): enhanced immunostaining
Result (immunoreactivity, Collagen IV staining) (Collagen IV [2]; [7]): ++
recovery of RNA from formalin-fixed paraffin-embedded tissue samples (RNA; [6]): enhanced recovery of RNA

CC(=O)CC(N)=O [acetoacetamide]
immunostaining of Collagen IV after antigen retrieval (collagen IV [1]; [5]): enhanced immunostaining

O=C1CC(=O)NC(=O)N1 [barbituric acid]
immunostaining of Collagen IV after antigen retrieval (collagen IV [1]): enhanced immunostaining

O=C(O)CC(O)(CC(=O)O)C(=O)O [citric acid, reference compound]
amount of Angiotensin I with 2 methylene units (m/z 1320) (Angiotensin I): significantly reduce
content of Angiotensin I with 1 methylene unit and 1 hydroxymethylene group (m/z 1338) (Angiotensin I): significantly reduce
retrieval of formalin adducts of Angiotensin I (Angiotensin I): significant retrieval of formalin adducts

NCCS [cysteamine]
immunostaining of GFAP after antigen retrieval (GFAP; [5]): enhanced immunostaining

N[C@@H](CS)C(=O)O [cysteine]
immunostaining of GFAP after antigen retrieval (GFAP; [5]): enhanced immunostaining
retrieval of formalin adducts of Angiotensin I (Angiotensin I): significant retrieval of formalin adducts

CC1(C)CC(=O)CC(=O)C1 [dimedone, 5,5-dimethyl-1,3-cylohexanedione]
immunostaining of Collagen IV after antigen retrieval (collagen IV [1]; [5]): enhanced immunostaining

O=C(O)/C=C/C(=O)O [fumaric acid, reference compound]
antigen retrieval with visualization of the blood vessels (blood vessels): significant reduction in activity

O=C1NCCN1 [imidazolidone]
amount of Angiotensin I with 2 methylene units (m/z 1320) (Angiotensin I): significantly reduce
content of unmodified Angiotensin I (m/z 1296) (Angiotensin I): higher content of unmodified Angiotensin I

O=C1C=CC(=O)O1 [maleic anhydride]
antigen retrieval with visualization of the blood vessels (blood vessels): successful antigen retrieval
antigen retrieval and immunodetection of collagen IV (collagen IV [4]): Superior antigen retrieval and immunodetection

COc1ccc(N)cc1 [p-Anisidine]
immunostaining of Collagen IV after antigen retrieval (collagen IV [1]): enhanced immunostaining
Result (immunoreactivity, Collagen IV staining) (Collagen IV [2]; [7]): ++
recovery of RNA from formalin-fixed paraffin-embedded tissue samples (RNA): enhanced recovery of RNA

Nc1ccc(N)cc1 [p-Phenylenediamine]
immunostaining of Collagen IV after antigen retrieval (collagen IV [1]): enhanced immunostaining
Result (immunoreactivity, Collagen IV staining) (Collagen IV [2]; [7]): +

Cc1ncc(CO)c(CN)c1O [pyridoxamine]
immunostaining of Collagen IV after antigen retrieval (collagen IV [1]; [5]): enhanced immunostaining

O=S([O-])O.[Na+] [sodium bisulfite]
immunostaining of GFAP after antigen retrieval (GFAP): enhanced immunostaining

O=S([O-])S(=O)(=O)[O-].[Na+].[Na+] [sodium metabisulfite]
immunostaining of GFAP after antigen retrieval (GFAP; [5]): enhanced immunostaining

O=C1CCC(=O)O1 [succinic anhydride, reference compound]
antigen retrieval with visualization of the blood vessels (blood vessels): no vasculature is visible

O=C1CCC(=O)N1 [succinimide]
immunostaining of Collagen IV after antigen retrieval (collagen IV [1]; [5]): enhanced immunostaining

O=C(OC[C@H]1O[C@@H](OC(=O)c2cc(O)c(O)c(OC(=O)c3cc(O)c(O)c(O)c3)c2)[C@H](OC(=O)c2cc(O)c(O)c(OC(=O)c3cc(O)c(O)c(O)c3)c2)[C@@H](OC(=O)c2cc(O)c(O)c(OC(=O)c3cc(O)c(O)c(O)c3)c2)[C@@H]1OC(=O)c1cc(O)c(O)c(OC(=O)c2cc(O)c(O)c(O)c2)c1)c1cc(O)c(O)c(OC(=O)c2cc(O)c(O)c(O)c2)c1 [tannic acid]
immunostaining of Collagen IV after antigen retrieval (collagen IV [1]; [5]): enhanced immunostaining
